According to ChEMBL document CHEMBL2203214, “Polyether ionophores-promising bioactive molecules for cancer therapy” (Bioorg Med Chem Lett, 2012):
≈ marks a conversion by molar mass, not a printed value.

Columns and labels:
[1] = Cell cycle arrest in human SCC cells assessed as accumulation at G1/G0 phase after 24 hrs relative to control; type: functional, cell-based
MDR [2] = test: Inhibition of MDR in human KB-C4 cells assessed as increase of vinblastine accumulation after 1 hr relative to control; type: cell-based
MDR [3] = test: Inhibition of MDR in human KB-C4 cells assessed as increase of vinblastine accumulation preincubated for 30 mins before vinblastine addition measured after drug washout relative to control; type: cell-based
[4] = Inhibition of vinblastine binding to human KB-C4 cells; type: functional, cell-based
[5] = Antiproliferative activity against human SCC cells assessed as non-viable cell level; type: functional
[6] = Induction of apoptosis in malignant lymphocyte after 48 hrs; type: functional
[7] = Potentiation of colchicine-induced cytotoxicity in human KB-C4 cells at 1 ug/mL relative to control; type: functional
[8] = Toxicity in chronic oral dosed rat after 2 years; type: organism-based; details: in vivo
[9] = Toxicity in […] oral dosed dog after 1 year; type: organism-based, Canis lupus familiaris; details: in vivo
[10] = Antiproliferative activity against human NCI-H929 cells assessed as growth inhibition at 0.5 uM; type: functional; details: read-out: GI
SNU-C1 = test: Antiproliferative activity against human SNU-C1 cells assessed as growth inhibition at 0.5 uM; type: functional; details: read-out: GI
[11] = Toxicity in subchronic oral dosed dog after 3 months; type: organism-based, Canis lupus familiaris; details: in vivo
[12] = Toxicity in chronic oral dosed mouse after 2 years; type: organism-based; details: in vivo
[13] = Toxicity in subchronic oral dosed rat after 3 months; type: organism-based; details: in vivo
[14] = Antiproliferative activity against human VCaP cells; type: functional, cell-based
PC-3 = test: Antiproliferative activity against human PC3 cells after 48 hrs; type: functional, cell-based; details: PC-3, 48 h

SMILES: CCC[C@H](O)[C@@]1(CC)C[C@@H](C)[C@](O)([C@]2(C)C[C@H](C)[C@@H]([C@@H](CC)C(=O)[C@@H](C)[C@@H](O)[C@H](C)[C@H]3O[C@@](O)([C@H](CC)C(=O)O)[C@@H](C)[C@H](O)[C@H]3CC)O2)O1 [INOSTAMYCIN]
- fold change (FC) [1]: 1.2
- fold change (FC) (MDR [2]): 4
- fold change (FC) (MDR [3]): 3
- IC50 [4]: 0.94 µg/mL (≈ 1.34 µM)
- Activity [5]: <1%

SMILES: C[C@H](CCC(=O)O)C[C@H](C)C[C@H](C)C(=O)/C=C(\O)[C@H](C)C[C@H](C)C/C=C/[C@@H](C)[C@@H](O)[C@@H](C)[C@@H](O)C[C@@H]1CC[C@@](C)([C@H]2CC[C@@](C)([C@@H](C)O)O2)O1 [IONOMYCIN]
- IC50 [6]: 230 nM

SMILES: CCC(=O)O[C@H]([C@H](C)[C@H]1O[C@@]2(CC[C@@](C)([C@H]3CC[C@@](C)([C@@H]4O[C@@H]([C@H]5O[C@@](O)(CO)[C@H](C)C[C@@H]5C)C[C@@H]4C)O3)O2)C[C@H](O)[C@H]1C)[C@H](C)C(=O)O [LAIDLOMYCIN]
- fold change (FC) [7]: 700

SMILES: CC[C@@]1([C@@H]2O[C@@H]([C@H]3O[C@@](O)(CO)[C@H](C)C[C@@H]3C)C[C@@H]2C)CC[C@H]([C@]2(C)CC[C@]3(C[C@H](O)[C@@H](C)[C@@H]([C@@H](C)[C@@H](OC)[C@H](C)C(=O)O)O3)O2)O1 [MONENSIN]
- NOAEL at 2 years [8]: 1.4 mg/kg/day
- NOAEL at 1 year [9]: 1.25 mg/kg/day
- inhibition of growth at 0.5 µM [10]: 50%
- inhibition of growth at 0.5 µM (SNU-C1): 50%
- NOAEL at 3 months [11]: 5 mg/kg/day
- NOAEL at 2 years [12]: 1.3 mg/kg/day
- NOAEL at 3 months [13]: 2 mg/kg

SMILES: CC[C@@H](C(=O)[C@@H](C)[C@@H](O)[C@H](C)[C@@H]1O[C@@H]([C@@H](CC)C(=O)O)CC[C@@H]1C)[C@H]1O[C@]2(C=C[C@@H](O)[C@]3(CC[C@@](C)([C@H]4CC[C@](O)(CC)[C@H](C)O4)O3)O2)[C@H](C)C[C@@H]1C [SALINOMYCIN]
- EC50 [14]: 380 nM
- EC50 (PC-3): > 1000 nM
